Values after ≈ are worked out from the molar mass of the structure shown. Non-standard residues stand in square brackets, D forms with d. Residues, ends and D or L forms follow the SMILES beside them. ξ: configuration not given here. Ac6c = NC1(C(=O)O)CCCCC1; Ac5c = NC1(C(=O)O)CCCC1; ξOrn = NCCCC(N)C(=O)O; ξDab = NCCC(N)C(=O)O; ξDap = NCC(N)C(=O)O
Experiments:
[1] = test system: Mycobacterium tuberculosis; assay: Antibacterial activity against ofloxacin-resistant Mycobacterium tuberculosis by two fold serial dilution method; assay type: functional
[2] = test system: Mycobacterium tuberculosis; assay: Antibacterial activity against rifampin/isoniazid-resistant Mycobacterium tuberculosis CSU 45 SRI 1377 by two fold serial dilution method; assay type: functional

## CC(=O)NCC(=O)N[C@@H](Cc1ccccc1)C(=O)NC1(C(=O)NCC(=O)N2Cc3ccccc3CC2C(=O)N[C@H](CCCCN)C(=O)NC2(C(=O)NCC(=O)N3Cc4ccccc4CC3C(=O)N[C@H](Cc3ccccc3)C(=O)NC3(C(=O)NCC(=O)N4Cc5ccccc5CC4C(=O)NCC(=O)N[C@H](CCCCN)C(=O)N4Cc5ccccc5CC4C(=O)N[C@H](CCCCN)C(=O)N[C@H](CCCCN)C(=O)N[C@H](CCCCN)C(=O)N[C@H](CCCCN)C(N)=O)CCCCC3)CCCCC2)CCCCC1 (some centres undefined)
[1]
  MIC: 20.7 µM (≈ 50 µg/mL)
[2]
  MIC: 20.7 µM (≈ 50 µg/mL)

## CC(=O)NCC(=O)N[C@@H](Cc1ccccc1)C(=O)NC1(C(=O)NCC(=O)NC2(C(=O)N[C@@H](CCCCN)C(=O)NC3(C(=O)NCC(=O)NC4(C(=O)N[C@@H](Cc5ccccc5)C(=O)NC5(C(=O)NCC(=O)NC6(C(=O)NCC(=O)N[C@@H](CCCCN)C(=O)NC7(C(=O)N[C@@H](CCCCN)C(=O)N[C@@H](CCCCN)C(=O)N[C@@H](CCCCN)C(=O)N[C@@H](CCCCN)C(N)=O)CCCC7)CCCC6)CCCC5)CCCC4)CCCC3)CCCC2)CCCC1 (Ac-GF[Ac5c]G[Ac5c]K[Ac5c]G[Ac5c]F[Ac5c]G[Ac5c]GK[Ac5c]KKKK-NH2)
[1]
  MIC: 22.9 µM (≈ 49.9 µg/mL)
[2]
  MIC: 11.4 µM (≈ 25 µg/mL)

## CC(=O)NCC(=O)N[C@@H](Cc1ccccc1)C(=O)NC1(C(=O)NCC(=O)NC2(C(=O)N[C@@H](CCCNC(=N)N)C(=O)NC3(C(=O)NCC(=O)NC4(C(=O)N[C@@H](Cc5ccccc5)C(=O)NC5(C(=O)NCC(=O)NC6(C(=O)NCC(=O)N[C@@H](CCCNC(=N)N)C(=O)NC7(C(=O)N[C@@H](CCCNC(=N)N)C(=O)N[C@@H](CCCNC(=N)N)C(=O)N[C@@H](CCCNC(=N)N)C(=O)N[C@@H](CCCNC(=N)N)C(N)=O)CCCC7)CCCC6)CCCC5)CCCC4)CCCC3)CCCC2)CCCC1 (Ac-GF[Ac5c]G[Ac5c]R[Ac5c]G[Ac5c]F[Ac5c]G[Ac5c]GR[Ac5c]RRRR-NH2)
[1]
  MIC: > 43 µM
[2]
  MIC: > 43 µM

## CC(=O)NCC(=O)N[C@@H](Cc1ccccc1)C(=O)NC1(C(=O)NCC(=O)NC2(C(=O)N[C@@H](CCCCN)C(=O)NC3(C(=O)NCC(=O)NC4(C(=O)N[C@@H](Cc5ccccc5)C(=O)NC5(C(=O)NCC(=O)NC6(C(=O)NCC(=O)N[C@@H](CCCCN)C(=O)NC7(C(=O)N[C@@H](CCCCN)C(=O)N[C@@H](CCCCN)C(=O)N[C@@H](CCCCN)C(=O)N[C@@H](CCCCN)C(N)=O)CCCC7)CCCCC6)CCCC5)CCCCC4)CCCC3)CCCCC2)CCCC1 (Ac-GF[Ac5c]G[Ac6c]K[Ac5c]G[Ac6c]F[Ac5c]G[Ac6c]GK[Ac5c]KKKK-NH2)
[1]
  MIC: 11.2 µM (≈ 25 µg/mL)
[2]
  MIC: 11.2 µM (≈ 25 µg/mL)

## CC(=O)NCC(=O)N[C@@H](Cc1ccccc1)C(=O)NC1(C(=O)NCC(=O)NC2(C(=O)N[C@@H](CCCCN)C(=O)N[C@@H](CCCCN)C(=O)NC3(C(=O)NCC(=O)NC4(C(=O)N[C@@H](Cc5ccccc5)C(=O)NC5(C(=O)NCC(=O)NC6(C(=O)NCC(=O)N[C@@H](CCCCN)C(=O)N[C@@H](CCCCN)C(=O)NC7(C(=O)N[C@@H](CCCCN)C(=O)N[C@@H](CCCCN)C(=O)N[C@@H](CCCCN)C(=O)N[C@@H](CCCCN)C(N)=O)CCCCC7)CCCCC6)CCCCC5)CCCCC4)CCCCC3)CCCCC2)CCCCC1 (Ac-GF[Ac6c]G[Ac6c]KK[Ac6c]G[Ac6c]F[Ac6c]G[Ac6c]GKK[Ac6c]KKKK-NH2)
[1]
  MIC: 4.92 µM (≈ 12.5 µg/mL)
[2]
  MIC: 4.92 µM (≈ 12.5 µg/mL)

## CC(=O)NCC(=O)N[C@@H](Cc1ccccc1)C(=O)NC1(C(=O)NCC(=O)NC2(C(=O)N[C@@H](CCCNC(=N)N)C(=O)NC3(C(=O)NCC(=O)NC4(C(=O)N[C@@H](Cc5ccccc5)C(=O)NC5(C(=O)NCC(=O)NC6(C(=O)NCC(=O)N[C@@H](CCCNC(=N)N)C(=O)NC7(C(=O)N[C@@H](CCCNC(=N)N)C(=O)N[C@@H](CCCNC(=N)N)C(=O)N[C@@H](CCCNC(=N)N)C(=O)N[C@@H](CCCNC(=N)N)C(N)=O)CCCCC7)CCCCC6)CCCCC5)CCCCC4)CCCCC3)CCCCC2)CCCCC1 (Ac-GF[Ac6c]G[Ac6c]R[Ac6c]G[Ac6c]F[Ac6c]G[Ac6c]GR[Ac6c]RRRR-NH2)
[1]
  MIC: 40.8 µM (≈ 99.9 µg/mL)
[2]
  MIC: 10.2 µM (≈ 25 µg/mL)

## CC(=O)NCC(=O)N[C@@H](Cc1ccccc1)C(=O)NC1(C(=O)NCC(=O)NC2(C(=O)NC(CCN)C(=O)NC3(C(=O)NCC(=O)NC4(C(=O)N[C@@H](Cc5ccccc5)C(=O)NC5(C(=O)NCC(=O)NC6(C(=O)NCC(=O)NC(CCN)C(=O)NC7(C(=O)NC(CCN)C(=O)NC(CCN)C(=O)NC(CCN)C(=O)NC(CCN)C(N)=O)CCCCC7)CCCCC6)CCCCC5)CCCCC4)CCCCC3)CCCCC2)CCCCC1 (some centres undefined) (Ac-GF[Ac6c]G[Ac6c][ξDab][Ac6c]G[Ac6c]F[Ac6c]G[Ac6c]G[ξDab][Ac6c][ξDab][ξDab][ξDab][ξDab]-NH2)
[1]
  MIC: 25.6 µM (≈ 54.3 µg/mL)
[2]
  MIC: 25.6 µM (≈ 54.3 µg/mL)

## CC(=O)NCC(=O)N[C@@H](Cc1ccccc1)C(=O)NC1(C(=O)NCC(=O)NC2(C(=O)NC(CN)C(=O)NC3(C(=O)NCC(=O)NC4(C(=O)N[C@@H](Cc5ccccc5)C(=O)NC5(C(=O)NCC(=O)NC6(C(=O)NCC(=O)NC(CN)C(=O)NC7(C(=O)NC(CN)C(=O)NC(CN)C(=O)NC(CN)C(=O)NC(CN)C(N)=O)CCCCC7)CCCCC6)CCCCC5)CCCCC4)CCCCC3)CCCCC2)CCCCC1 (some centres undefined) (Ac-GF[Ac6c]G[Ac6c][ξDap][Ac6c]G[Ac6c]F[Ac6c]G[Ac6c]G[ξDap][Ac6c][ξDap][ξDap][ξDap][ξDap]-NH2)
[1]
  MIC: 49.3 µM (≈ 100 µg/mL)
[2]
  MIC: 49.3 µM (≈ 100 µg/mL)

## CC(=O)NCC(=O)N[C@@H](Cc1ccccc1)C(=O)NC1(C(=O)NCC(=O)NC2(C(=O)NC(CCCN)C(=O)NC3(C(=O)NCC(=O)NC4(C(=O)N[C@@H](Cc5ccccc5)C(=O)NC5(C(=O)NCC(=O)NC6(C(=O)NCC(=O)NC(CCCN)C(=O)NC7(C(=O)NC(CCCN)C(=O)NC(CCCN)C(=O)NC(CCCN)C(=O)NC(CCCN)C(N)=O)CCCCC7)CCCCC6)CCCCC5)CCCCC4)CCCCC3)CCCCC2)CCCCC1 (some centres undefined) (Ac-GF[Ac6c]G[Ac6c][ξOrn][Ac6c]G[Ac6c]F[Ac6c]G[Ac6c]G[ξOrn][Ac6c][ξOrn][ξOrn][ξOrn][ξOrn]-NH2)
[1]
  MIC: 11.4 µM (≈ 25 µg/mL)
[2]
  MIC: 11.4 µM (≈ 25 µg/mL)

## CC(=O)N[C@@H](CCCCN)C(=O)N[C@@H](CCCCN)C(=O)N[C@@H](CCCCN)C(=O)N[C@@H](CCCCN)C(=O)NCC(=O)N[C@@H](Cc1ccccc1)C(=O)NC1(C(=O)NCC(=O)NC2(C(=O)N[C@@H](CCCCN)C(=O)NC3(C(=O)NCC(=O)NC4(C(=O)N[C@@H](Cc5ccccc5)C(=O)NC5(C(=O)NCC(=O)NC6(C(=O)NCC(=O)N[C@@H](CCCCN)C(=O)NC7(C(N)=O)CCCCC7)CCCCC6)CCCCC5)CCCCC4)CCCCC3)CCCCC2)CCCCC1 (Ac-KKKKGF[Ac6c]G[Ac6c]K[Ac6c]G[Ac6c]F[Ac6c]G[Ac6c]GK[Ac6c]-NH2)
[1]
  MIC: 5.47 µM (≈ 12.5 µg/mL)
[2]
  MIC: 10.9 µM (≈ 25 µg/mL)

## CC(=O)NCC(=O)N[C@H](Cc1ccccc1)C(=O)NC1(C(=O)NCC(=O)N2C(C(=O)N[C@@H](CCCCN)C(=O)NC3(C(=O)NCC(=O)N4C(C(=O)N[C@@H](Cc5ccccc5)C(=O)NC5(C(=O)NCC(=O)N6C(C(=O)NCC(=O)N[C@@H](CCCCN)C(=O)N7C(C(=O)N[C@H](CCCCN)C(=O)N[C@H](CCCCN)C(=O)N[C@H](CCCCN)C(=O)N[C@H](CCCCN)C(N)=O)CC8CCCCC87)CC7CCCCC76)CCCCC5)CC5CCCCC54)CCCCC3)CC3CCCCC32)CCCCC1 (stereo in doubt)
[1]
  MIC: 20.9 µM (≈ 50 µg/mL)
[2]
  MIC: 20.9 µM (≈ 50 µg/mL)

## CN[C@@H]1[C@H](O[C@H]2[C@H](O[C@H]3[C@H](O)[C@@H](O)[C@H](N=C(N)N)[C@@H](O)[C@@H]3N=C(N)N)O[C@@H](C)[C@]2(O)C=O)O[C@@H](CO)[C@H](O)[C@H]1O [STREPTOMYCIN]
[1]
  MIC: 3.4 µM (≈ 1.98 µg/mL)
[2]
  MIC: 0.8 µM (≈ 0.465 µg/mL)
